16 molecules from PubChem BioAssay (NCI) can be followed below.

Some test systems named below: CAKI-1 renal; HCC-2998 colon; IGROV1 ovarian; NCI-H460 lung; OVCAR-3 ovarian; SK-OV-3 ovarian; SNB-19 CNS; SW-620 colon; UACC-62 melanoma.
Holding throughout (experiment): growth of human tumour cells (NCI), 48 h

The structures appear in SMILES notation.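 48-hour exposure; five concentrations; linearly interpolated endpoints. Abbreviation: GI50, concentration required for 50% inhibition of growth. The concentration for full growth arrest is given as TGI.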 Where only a bound is given, the exact number is not on record here.

As for `O=C(NNC(=O)/C(=C/c1cccc([N+](=O)[O-])c1)NC(=O)c1ccccc1)Nc1ccc(Cl)cc1`, the TGI in the assay with CAKI-1 renal worked out at 40.2 µM; in the assay on HCC-2998 colon, 25.8 µM; in the assay with IGROV1 ovarian, 27.4 µM; with NCI-H460 lung, 29.9 µM; in the assay with OVCAR-3 ovarian, 25.4 µM; with SK-OV-3 ovarian it was 32.1 µM. The TGI was 30.8 µM in the assay with SNB-19 CNS, 28.5 µM in the assay with SW-620 colon and 30.3 µM in the assay on UACC-62 melanoma.

As to `Cc1cc(NCCCCCCCCNc2cc(C)nc3cc(N(C)C)ccc23)c2ccc(N(C)C)cc2n1`, the TGI with CAKI-1 renal is 72.1 µM; in the assay on NCI-H460 lung it was 19.5 µM; in the assay on OVCAR-3 ovarian, 18.4 µM; in the assay with SNB-19 CNS it was 61.6 µM; in the assay with SW-620 colon, 87.6 µM.

Take `O=S1(=O)CC#CC[C@@H](CO)[C@@H](CO)CC#CC1`: the TGI in the assay on HCC-2998 colon, in the assay with IGROV1 ovarian, in the assay on NCI-H460 lung, with OVCAR-3 ovarian, with SK-OV-3 ovarian and in the assay with SW-620 colon was greater than 100 µM throughout. This molecule returned a TGI in the assay with UACC-62 melanoma greater than 100 µM.

With `CCCCCCCCCCCCCC(=O)OCC1OC(=O)C(O)C1O` (centres undefined), the TGI with CAKI-1 renal, with HCC-2998 colon, in the assay on IGROV1 ovarian, in the assay with OVCAR-3 ovarian, in the assay on SK-OV-3 ovarian and in the assay with SNB-19 CNS was greater than 100 µM throughout. In addition, the TGI with SW-620 colon and in the assay with UACC-62 melanoma was greater than 100 µM each time.

As to `COc1ccc(/C=C2\CCC(C)(CN(C)C)C2=O)cc1Br` (centres undefined), the TGI in the assay on CAKI-1 renal was greater than 91.6 µM; with HCC-2998 colon it was 35.8 µM; with IGROV1 ovarian it was 40.2 µM; in the assay on NCI-H460 lung it was greater than 57.2 µM; with OVCAR-3 ovarian, 35.2 µM; with SK-OV-3 ovarian, 70.5 µM. Also, the TGI in the assay on SNB-19 CNS worked out at 47.8 µM; in the assay on SW-620 colon, 38.4 µM; with UACC-62 melanoma it was 20 µM.

For `COC(=O)/C(=C1\OC(=O)C(c2ccc(Cl)cc2)=C1O)c1ccc(Cl)cc1`, the TGI with CAKI-1 renal is 57.9 µM; in the assay with HCC-2998 colon, 86.5 µM; in the assay with IGROV1 ovarian it was greater than 100 µM; in the assay with NCI-H460 lung, 92.4 µM; with OVCAR-3 ovarian, 87.6 µM; in the assay with SK-OV-3 ovarian, 84.6 µM. Besides, the TGI is 94.5 µM with SNB-19 CNS, greater than 100 µM in the assay with SW-620 colon and 56.9 µM in the assay with UACC-62 melanoma.

As for `Fc1ccc(Nc2ccnc(N3CCN(c4ccnc5cc(Cl)ccc45)CC3)n2)cc1`, the GI50 is 1830 nM with CAKI-1 renal; 3.4 µM with HCC-2998 colon; 3.38 µM in the assay on IGROV1 ovarian; 1740 nM in the assay with NCI-H460 lung; 2530 nM with OVCAR-3 ovarian; 5.02 µM in the assay on SK-OV-3 ovarian. For the same molecule, the GI50 is 3.99 µM in the assay with SNB-19 CNS, 2920 nM in the assay with SW-620 colon and 1730 nM with UACC-62 melanoma. Further, the TGI was 5.3 µM in the assay with CAKI-1 renal; 13.7 µM in the assay on HCC-2998 colon; 30.9 µM in the assay on IGROV1 ovarian; 4.54 µM in the assay with NCI-H460 lung; 7.38 µM in the assay with OVCAR-3 ovarian; greater than 100 µM in the assay with SK-OV-3 ovarian. The TGI in the assay on SNB-19 CNS is greater than 100 µM; in the assay with SW-620 colon it was 13.9 µM; in the assay with UACC-62 melanoma it was 4.53 µM.

For the molecule `O=S1c2ccccc2N=C(c2cccs2)CC1c1ccccc1O` (centres undefined), the TGI in the assay with CAKI-1 renal, in the assay with HCC-2998 colon, with IGROV1 ovarian, in the assay on NCI-H460 lung, with OVCAR-3 ovarian and with SK-OV-3 ovarian was greater than 100 µM in each case. Also, the TGI with SNB-19 CNS, with SW-620 colon and in the assay with UACC-62 melanoma was greater than 100 µM each time.

Turning to `Clc1cc2ns[s+]c2cc1Cl`, the TGI in the assay with CAKI-1 renal, with HCC-2998 colon, in the assay with IGROV1 ovarian, with NCI-H460 lung, in the assay on OVCAR-3 ovarian and in the assay with SK-OV-3 ovarian was greater than 100 µM in each case. Besides, the TGI in the assay on SNB-19 CNS, with SW-620 colon and with UACC-62 melanoma was greater than 100 µM in each case.

`O=c1[nH]c(C2CCCCC2)nc2ccc(Cl)cc12`: the TGI in the assay on HCC-2998 colon, in the assay on IGROV1 ovarian, with OVCAR-3 ovarian, in the assay on SK-OV-3 ovarian, in the assay with SNB-19 CNS and in the assay with SW-620 colon was greater than 100 µM in each case. This molecule also came in with a TGI with UACC-62 melanoma greater than 100 µM.

Consider `CCn1c(C)nc([N+](=O)[O-])c1Sc1ncc[nH]1`, for which the TGI in the assay on CAKI-1 renal, in the assay on HCC-2998 colon, in the assay with IGROV1 ovarian, with NCI-H460 lung, in the assay on OVCAR-3 ovarian and with SK-OV-3 ovarian was greater than 100 µM throughout. The TGI in the assay with SNB-19 CNS, with SW-620 colon and in the assay with UACC-62 melanoma was greater than 100 µM throughout.

`COc1ccc(NC(=O)CC2SC(=Nc3ccc(Cl)cc3C)NC2=O)c([N+](=O)[O-])c1` (centres undefined): the TGI in the assay on CAKI-1 renal, with HCC-2998 colon, in the assay with IGROV1 ovarian, in the assay with NCI-H460 lung, with OVCAR-3 ovarian and in the assay on SNB-19 CNS was greater than 100 µM throughout. For the same molecule, the TGI in the assay on SW-620 colon and with UACC-62 melanoma was greater than 100 µM in each case.

As to `Cc1ccccc1C1SCc2nc3ccccc3n21` (centres undefined), the TGI with CAKI-1 renal, with HCC-2998 colon, in the assay on IGROV1 ovarian, in the assay with OVCAR-3 ovarian, in the assay on SK-OV-3 ovarian and in the assay on SNB-19 CNS was greater than 100 µM each time. Further, the TGI in the assay with UACC-62 melanoma was greater than 100 µM.

Regarding `CC1=NN(c2ccccc2)C(=O)C1N=Nc1ccc(Br)cc1C` (centres undefined), the TGI with CAKI-1 renal, in the assay with HCC-2998 colon, in the assay with IGROV1 ovarian, with NCI-H460 lung, in the assay on OVCAR-3 ovarian and in the assay with SK-OV-3 ovarian was greater than 100 µM each time. The TGI in the assay with SNB-19 CNS, in the assay on SW-620 colon and with UACC-62 melanoma was greater than 100 µM each time.

`Cc1c2cc[n+](C)cc2c(C)c2c1[nH]c1ccc(OC(C)(C)C)cc12`: the TGI with CAKI-1 renal, with HCC-2998 colon, in the assay with IGROV1 ovarian, in the assay with NCI-H460 lung, with SK-OV-3 ovarian and in the assay with SW-620 colon was greater than 100 µM in each case. In the assay on UACC-62 melanoma, this molecule yielded a TGI greater than 100 µM.

Consider `O=Cc1cc2sc(C=O)cc2s1`, for which the TGI in the assay on CAKI-1 renal, in the assay on HCC-2998 colon, with IGROV1 ovarian, in the assay on NCI-H460 lung, in the assay on OVCAR-3 ovarian and in the assay on SK-OV-3 ovarian was greater than 100 µM throughout. The TGI with SNB-19 CNS, in the assay with SW-620 colon and with UACC-62 melanoma was greater than 100 µM in each case.
